Test results: patent publication US20170128518A1, “METHODS AND MATERIALS FOR IDENTIFYING AND TREATING MAMMALS RESISTANT TO PROTEASOME INHIBITOR TREATMENTS” (Mayo Foundation for Medical Education and Research, priority 2014, published 2017)
pIC50: −log10 of the molar value. Entries after “also recorded” stand apart in the source; their conditions may differ.

Legend:
[1] = test system: WT and BR WM cells; test: Mitochondrial outer membrane permeability (TMRM), WM cell lines; format: cell-based, human
Procedure: (§1) Cells were treated with different agents for 48 hours and assessed for MOMP using tetramethylrhodamine methyl ester [TMRM] (Life Technologies). TMRM was directly added to the cell cultures at 100 nmol/1 concentrations and incubated at 37° C. in the dark for 15 minutes. At the end of the incubation, cells were washed twice with cold PBS containing 2% FBS and analyzed. The cells were washed for fluorescence (FL2) and analyzed by BD Accuri, the C6 flow cytometer and its software. Data from at least 20,000 events per sample were collected and analyzed. TMRM-negative (%) cells were calculated to determine % MOMP.

[2] = test system: BCWM.1 cells; test: Annexin-V apoptosis assay, BCWM.1; format: cell-based, human
Procedure: (§2) FIG. 18 is a series of representative heat density plots showing Annexin-V staining in BCWM.1 and BCWM.1/BR±b-AP15 treatment, indicating about 46% cell death in BCWM.1 cells (top panels) and about 42% cell death in BCWM.1/BR cells (bottom panels).
(§3) Apoptosis was measured using the Annexin V binding assay kit from BD Biosciences according to the manufacturer's instructions. Briefly, at the end of the treatment, cells were washed with PBS and 1×10^6 cells were re-suspended in 100 μl of binding buffer. Fluorescein isothiocycanate (FITC)-labelled Annexin V (5 μl) and propidium iodide (10μ were added to each sample and incubated in the dark for 15 minutes at room temperature. The cells were subsequently analyzed by flow cytometry using BD Accuri, the C6 flow cytometer and its software. Data from 10,000 events per sample were collected and analyzed.

[3] = test system: MWCL-1/BR; test: MTS viability assay, MWCL-1/BR; format: cell-based, human; settings: 72-h MTS assay, MWCL-1B/BR
Procedure: (§4) Twenty thousand cells/200 μl in quadruplicates were incubated with serially diluted b-AP15 (1-1000 nmol/l) in 96-well plates at 37° C. for 72 hours. MTS (3-(4,5-dimethylthiazol-2-yl)-5-(3-carboxymethoxyphenyl)-2-(4-sulfophenyl)-2H-tetrazolium) reagent (Molecular Probes, Eugene, Oreg.) was added at 40 μl/well and the plates were further incubated at 37° C. for 3 hours and the developed color was read at 490 nm using a BioTek synergy HT plate reader against blanks with no cells.

[4] = test system: BCWM.1/BR; test: MTS viability assay, BCWM.1/BR; format: cell-based, human; settings: 72-h MTS assay
Procedure: FIGS. 4A-4D show the characterization of BR WM models, established by subjecting WM cancer cell lines (n=3) chronic drug exposure. […] FIG. 4C is a graph plotting relative fluorescence units in an assay to examine PSMB5 enzyme function by flow cytometry.
as §4

[5] = test system: BCWM.1/BR cells; test: Annexin-V apoptosis assay, BCWM.1/BR; format: cell-based, human
Procedure: as §2, §3

[6] = biological target: T1, proteasome b2 subunit (trypsin-like activity) (Homo sapiens, UniProt Q99436); test: Proteasomal activity assay, trypsin-like (LRR-AMC), WM cells; format: biochemical; settings: 10 nM; BCWM.1 and BCWM.1/BR shown
T1 construct: Cells were lysed at 4×10^6 cells/ml in proteasomal activity assay buffer; endogenous in cells; host or cells: BCWM.1 and BCWM.1/BR (lysates)
Procedure: FIGS. 17A-17D are a series of graphs plotting the effects of bortezomib (10 nM), carfilzomib (10 nM) and b-AP15 (10 nM) on caspase-like and trypsin-like proteasomal activities, as assessed in three WT and three BR WM cell lines in vitro using the fluorogenic substrates LLE-AMC (caspase-like activity) and LRR-AMC (trypsin-like activity). Reactions were incubated at 37° C. for 1 hour and the fluorescence was measured at 360/460 and expressed as relative fluorescence units (RFU), using BioTek synergy HT plate reader. Data from two representative cell lines (BCWM.1 and its BR subclone) are shown.
(§5) Cells were lysed at 4×10^6 cells/ml in proteasomal activity assay buffer [assay buffer; 25 mmol/1 HEPES buffer, pH7.5 containing 0.5 mmol/1 EDTA, 0.05% Nonidet P-40, 0.01% sodium dodecyl sulfate (SDS)] and immediately used in the assay. Enzyme reactions were performed in 96-well plates with 100 μl of final volume containing […] fluorogenic peptide substrates. The substrates used were LLVY-AMC for chymotrypsin like activity, LLE-AMC for caspase-like activity and LRR-AMC for trypsin-like activity. Reactions were incubated at 37° C. for 1 hour and fluorescence was measured at 360/460 using a BioTek synergy HT plate reader (BioTek, Winooski, Vt.).

[7] = test system: BCWM.1 cells; test: Mitochondrial outer membrane permeability (TMRM), BCWM.1; format: cell-based, human
Procedure: FIG. 19 is a pair of histograms showing MOMP in representative WM models±b-AP15 treatment (BCWM.1 and BCWM.1/BR cells; one WT with its respective BR subclone). Black histogram represents control. Lines represent a shift in MOMP.
as §1

[8] = test system: CD19+/CD138+ WM cells from human patients; test: Annexin-V apoptosis assay, primary patient-derived WM cells; format: cell-based
Procedure: FIGS. 12A-12D are a series of graphs and Western blots showing b-AP15 induction of tumor-specific apoptosis in WM cell lines and primary patient-derived WM cells. FIG. 12A is a graph plotting cell death as a percentage of control cell death for all available WM cell lines (n=6, WT and BR derivatives) after treatment with the indicated concentrations of b-AP15, followed by staining with annexin-V and propidium iodide and then flow cytometry to examine apoptosis. […] Each experiment was conducted a minimum of three times with control cells (no drug treatment) showing a viability ([…] and propidium iodide-negative population) of >85%. Following treatment, the percentage of cells affected by b-AP15 was calculated by normalizing data from treated cells relative to the control (untreated) cells. […]
as §3, with “Briefly, at the end of the treatment, cells were washed with PBS and 1×10^6 cells were re-suspended in 100 μl of binding buffer.” left out

[9] = biological target: T2, 20S proteasome b5 subunit (Homo sapiens, UniProt P28074); test: Proteasomal activity assay, chymotrypsin-like (LLVY-AMC), WM cells; format: biochemical; settings: 10 nmol/l; WT and BR WM cells
T2 construct: Cells were lysed at 4×10^6 cells/ml in proteasomal activity assay buffer; endogenous in cells; host or cells: BCWM.1, MWCL-1, RPCI-WM1 and their BR subclones (lysates)
T2 sequence (P28074 60-263): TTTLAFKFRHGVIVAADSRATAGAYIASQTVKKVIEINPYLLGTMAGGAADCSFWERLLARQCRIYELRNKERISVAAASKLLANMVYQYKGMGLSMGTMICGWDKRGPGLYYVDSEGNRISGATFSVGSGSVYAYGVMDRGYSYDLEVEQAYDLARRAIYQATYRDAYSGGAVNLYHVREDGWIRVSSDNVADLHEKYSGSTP
Procedure: FIGS. 10A and 10B are a series of graphs plotting the effect of b-AP15 treatment on 20S proteasome, b5-subunit (chymotrypsin-like) catalytic activity in WT and BR WM cells.
as §5

[10] = test system: RPCI-WM1/BR; test: MTS viability assay, RPCI-WM1/BR; format: cell-based, human; settings: 72-h MTS assay
Procedure: as §4

T1 sequence (Q99436 44-277): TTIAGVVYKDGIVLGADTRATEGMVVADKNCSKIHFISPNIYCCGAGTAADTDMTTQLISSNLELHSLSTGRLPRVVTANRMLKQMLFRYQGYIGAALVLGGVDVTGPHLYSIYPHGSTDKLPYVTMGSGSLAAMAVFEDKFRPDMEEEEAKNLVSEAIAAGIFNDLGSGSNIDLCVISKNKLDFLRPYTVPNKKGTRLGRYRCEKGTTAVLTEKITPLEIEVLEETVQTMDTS

C=CC(=O)N1C/C(=C\c2ccc([N+](=O)[O-])cc2)C(=O)/C(=C/c2ccc([N+](=O)[O-])cc2)C1 [b-AP15]
MOMP [1]: significantly induced | cell death (Annexin-V staining) [2]: about 46% | pIC50 [3]: 8.52 | pIC50 [4]: 7.80 | cell death (Annexin-V staining) [5]: about 42% | trypsin-like proteasomal activity [6]: no change in trypsin-like activity | increase in MOMP [7]: 57% | apoptosis (annexin-V positivity) ([8]; 0.5 μmol/l, 12 hours): Significant annexin-V positivity; also recorded: Robust apoptotic cell death | cells undergoing total loss of viability ([8]; 1 μmol/l): > 90% | chymotrypsin-like activity (LLVY) of the b5 subunit [9]: did not alter chymotryptic activity; also recorded: no loss of the chymotrypsin-like activity | pIC50 [10]: 7.24
